Several values for one entry are separate records, joined by “and”; a condition that tells them apart may be missing. Equal values may be shown once.

Format in all cases: in vivo
In test [1] the test system is nursery pigs. As to the kind of experiment: Bone (third metacarpal) Ca, P and ash concentrations in nursery pigs on day 42. The note with it: for Bone Ca (DM basis) / Bone P (DM basis) / Bone ash (DM basis): day 42. An excerpt: (§1) A total of 288 weaning barrows [TR-4×PIC C-22, initial body weight (BW)=5.71±0.71 kg] were allotted to 1 of 8 dietary treatments according to randomized complete block design. Pigs were blocked by initial body weight. The study started from weaning (day 0) to day 42 post-weaning. Three-phase feeding program was used in this study, in which day 0 to 14, day 15 to 28, and day 29 to 42 were considered as nursing phase 1, 2, and 3, respectively. A basal diet for each phase was formulated to meet the energy and nutrient requirement for different stages of pigs according to previously published recommendation,^1 with the exception of P [0.15% reduction of standardized total tract digestible (STTD) P] and Ca (adjusted according to the fixed ratio of Ca/STTD P=2.15). Eight experimental diets were formulated based on basal diet supplemented with phytase (0 or 500 FTU/kg), Zn sources (2000 ppm Zn from ZnO in phase 1 and 2, 100 ppm Zn from ZnO in phase 3; 100 ppm Zn from Zn(HMTBA)2 from phase 1 to 3) and Cu sources (150, 80, 80 ppm Cu from CuSO4 or Cu(HMTBA)2 in phase 1, 2, and 3, respectively) in a 2×2×2 factorial treatment design. Titanium dioxide at 0.4% was included in phase 2 diets to measure Ca and P digestibility.
On day 42, 2 pigs from each pen were euthanized to collect the right front legs. The third metacarpal bone from each right front leg was used to determine DM, Ca, P, and ash concentrations.
(§2) SAS 9.4 (SAS Inst. Inc., Gary, N.C.) was used for all data analysis. Pen served as the experimental unit. The LSMEANS statement was be used to calculate the least square means. Tukey-Kramer adjustment was used for multiple comparisons of the least square means. Pooled SEM will be calculated for each measurement. A probability of P 0.05 will be considered as significant and 0.05<P≤0.10 will be declared as a trend. Mineral sources (Zn and Cu), phytase and their interactions were considered as the main effect, while block was considered as the random effect.

The subject of test [2] is nursery pigs. As to the kind of experiment: Gain to feed ratio during d 15 to 28 in nursery pigs. The note with it: for G:F (d 15 to 28): 80 ppm Cu.
Description: as §1, §2

Test [3] deals with nursery pigs. As to the kind of experiment: Standardized total tract digestibility (STTD) of Ca and P in nursery pigs, fecal grab sampling day 24 to 26, titanium dioxide marker. To be noted: for STTD of Ca / STTD of P: ZnO 2000 ppm Zn vs Zn(HMTBA)2 100 ppm Zn, nursery phase 2.
Description: as §1
Fresh fecal samples were collected via grab sampling from each pig per pen at least twice per day from day 24 to 26. Fecal samples collected from the same pen during the 3 days were pooled together, and a subsample was placed inside a large oven set at 65° C. Oven dried fecal samples were stored at room temperature until analysis for dry matter (DM), Ca, P, and titanium (Ti).
The apparent total tract digestibility (ATTD) coefficient for Ca and P in each treatment was calculated using the following formula:
ATTD of Ca, %=[1−(Cafeces/Cadiet)×(Mdiet/Mfeces)]×100 (Equation 1)
ATTD of P, %=[1−(Pfeces/Pdiet)×Mdiet/Mfeces)]×100 (Equation 2) where Cafeces and Cadiet represented Ca concentrations (g/kg) in feces and diet DM, respectively; Pfeces and Pdiet represented P concentrations (g/kg) in feces and diet DM; Mdiet and Mdigesta represent the marker concentrations (g/kg) in diet and feces DM, respectively.
The standard total tract digestibility (STTD) of Ca was calculated according to the following equation:
STTD of Ca, %=[ATTD of Ca+(basal ECaLend/Cadiet)×100] (Equation 3) where Cadiet represented Ca concentrations (g/kg) in diet DM, respectively; basal ECaLend represented basal endogenous loss of Ca which was approximately 330 mg/kg DMI.
The standard total tract digestibility (STTD) of P was calculated according to the following equation:
STTD of P, %=[ATTD of P+(basal EPLend/Pdiet)×100] (Equation 4) where Pdiet represented P concentrations (g/kg) in diet DM, respectively; basal EPLend represented basal endogenous loss of P which was approximately 190 mg/kg DMI.
as §2

[4] abbreviates: both supplemented at 80 ppm, Cu source main effect.

With `CSCCC(O)C(=O)[O-].CSCCC(O)C(=O)[O-].[Cu+2]` (stereo not drawn) [Cu(HMTBA)2], in the test with nursery pigs [1] (setting [4]), the “Difference to CuSO4 in bone Ca, P and ash” value is “no significant differences”. In addition, in the test on nursery pigs [1] (no phytase), the “Bone Ca (DM basis)” value worked out at 12.55%, the “Bone P (DM basis)” value was found to be 6.44% and the “Bone ash (DM basis)” value came to 35.95%. Besides, in the test on nursery pigs [1] (with phytase 500 FTU/kg), the “Bone Ca (DM basis)” value is recorded as 14.89%, the “Bone P (DM basis)” value is on record as 7.81% and the “Bone ash (DM basis)” value is reported as 41.97%. The “Difference to CuSO4 in gain to feed ratio (G:F) during day 15 to 28” value in the test with nursery pigs [2] (setting [4]) is given as “no significant differences”. For the same compound, in the test with nursery pigs [2] (no phytase), the “G:F (d 15 to 28)” value is 0.75 g/g. Besides, the “G:F (d 15 to 28)” value with nursery pigs [2] (with phytase 500 FTU/kg) is recorded as 0.84 g/g.

On to `O=S(=O)([O-])[O-].[Cu+2]` [CuSO4, reference compound], for which the “Bone Ca (DM basis)” value with nursery pigs [1] (no phytase) was determined as 13.04%; in the test with nursery pigs [1] (with phytase 500 FTU/kg), 14.14%. Further, the results for the “Bone P (DM basis)” value with nursery pigs [1] (no phytase) and with nursery pigs [1] (with phytase 500 FTU/kg) were 6.65% and 7.38%, respectively. In addition, the “Bone ash (DM basis)” value is 36.69% in the test on nursery pigs [1] (no phytase) and 40.41% with nursery pigs [1] (with phytase 500 FTU/kg). Moreover, the “G:F (d 15 to 28)” value in the test with nursery pigs [2] (no phytase) came to 0.76 g/g; in the test with nursery pigs [2] (with phytase 500 FTU/kg) it was 0.80 g/g.

As to `CSCCC(O)C(=O)[O-].CSCCC(O)C(=O)[O-].[Zn+2]` (stereo not drawn) [Zn(HMTBA)2], in the test with nursery pigs [3] (no phytase), the “STTD of Ca” value is 53.30% and the “STTD of P” value is reported as 32.65%. For the same compound, in the test with nursery pigs [3] (with phytase 500 FTU/kg), the “STTD of Ca” value is 65.63% and the “STTD of P” value turned out to be 46.36%. In the test with nursery pigs [3] (with phytase supplementation), the “Absolute increase of STTD of Ca compared with ZnO” value stood at 6.45% and the “Absolute increase of STTD of P compared with ZnO” value was found to be 12.68%. For the same compound, in the test with nursery pigs [3] (without phytase), the “Absolute increase of STTD of Ca compared with ZnO” value amounted to 4.81% and the “Absolute increase of STTD of P compared with ZnO” value was found to be 29.98%.

With `[O]=[Zn]` [ZnO, reference compound], in the test on nursery pigs [3] (no phytase), the “STTD of Ca” value was 48.48% and 48.49%; the “STTD of P” value came out at 2.67%. Moreover, in the test with nursery pigs [3] (with phytase 500 FTU/kg), the “STTD of Ca” value is 59.18% and the “STTD of P” value amounted to 33.68%.

The values are drawn from patent US20190150481A1, “COMPOSITIONS AND METHODS OF IMPROVING DIETARY PHOSPHORUS AND CALCIUM UTILIZATION IN ANIMALS” (Novus International, Inc., priority 2017, published 2019).
